The source of these data is patent US10266520B2, “Bisamidinium-based inhibitors for the treatment of myotonic dystrophy” (The Board of Trustees of the University of Illinois, priority 2014, dated 2019).

Series [1] has as its system insulin receptor (IR) pre-mRNA splicing. As to conditions: DM1 model cells; cited from earlier work.
In series [2] the target is (CUG)12. Nature of the series: Isothermal titration calorimetry (ITC) binding to (CUG)12. The note with it: 25° C., read-out: KD, binding affinity toward (CUG)12. The protocol: The alkyne and azide moieties were chosen because of their small size, excellent stability, and ultimate bioorthogonality. […] This finding enables the rapid development of a wide range of functional derivatives of ligand 1a using the [3+2] alkyne-azide cycloaddition (‘click reaction’) of 1b and 1c.
The ligand stock solution (10 mM in water). MOPS buffer (100 mM; pH 7.0±0.2), and NaCl (5000 mM) were prepared. The ligand solution (1 mL) contained of 0.5 mM of ligand, 20 mM of MOPS buffer, and 150 mM of NaCl. The RNA solution (2 mL) contained 0.02 mM of RNA, 20 mM of MOPS buffer, and 150 mM of NaCl. The resulting RNA solution was heated in a water bath at 90° C. for 5 min, then allowed to cool to room temperature for 2 h.
ITC measurements were performed at 25° C. on a MicroCal VP-ITC calorimeter (Northampton, Mass.). A typical experiment consisted of titrating 10 μL of a ligand solution (500 μM) from a 250 μL syringe (stirred at 300 rpm) into a sample cell containing 1.42 mL of a RNA solution (10 μM) with total 28 injections. The initial delay prior to the first injection was 60 s. The duration of each injection was 24 s and the delay between injections was 300 s. […] Binding parameters such as the dissociation constant (KD), enthalpy change (ΔH), and entropy change (ΔS) were determined by fitting the experimental binding isotherms with various model. […]
A general note: Isothermal titration calorimetry measures the heat released or taken up as one component is titrated into another.

For series [3] the following is noted: earlier work; cited from earlier work.

As for `N=C(NCCCCNc1nc(N)nc(N)n1)c1ccc(C(=N)NCCCCNc2nc(N)nc(N)n2)cc1` [Compound 1a], in series [1], the “mis-splicing of cTNT and IR pre-mRNA (earlier work)” value is “partially rescuing the mis-splicing”. Besides, the Kd (as a rule, the concentration at which binding is half-saturated) in series [2] was determined as 8 µM. Also, the cytotoxicity entry in series [3] is given as “low cytotoxicity”.
